The values that follow come from ChEMBL document CHEMBL1127970, “Dual metalloprotease inhibitors. IV. Utilization of thiazepines and thiazines as constrained peptidomimetic surrogates in mercaptoacyl dipeptides” (Bioorg Med Chem Lett, 1994).

The test system of one assay is Rattus norvegicus. The assay can be described thus: Effective dose required to inhibit angiotensin 1(AI) induced pressor response in normotensive rats when administered intravenously. The format is functional. Particulars: iv.
Assay [1] deals with T1, Angiotensin-converting enzyme (Rattus norvegicus, UniProt P47820).
T1 sequence (P47820 whole entry): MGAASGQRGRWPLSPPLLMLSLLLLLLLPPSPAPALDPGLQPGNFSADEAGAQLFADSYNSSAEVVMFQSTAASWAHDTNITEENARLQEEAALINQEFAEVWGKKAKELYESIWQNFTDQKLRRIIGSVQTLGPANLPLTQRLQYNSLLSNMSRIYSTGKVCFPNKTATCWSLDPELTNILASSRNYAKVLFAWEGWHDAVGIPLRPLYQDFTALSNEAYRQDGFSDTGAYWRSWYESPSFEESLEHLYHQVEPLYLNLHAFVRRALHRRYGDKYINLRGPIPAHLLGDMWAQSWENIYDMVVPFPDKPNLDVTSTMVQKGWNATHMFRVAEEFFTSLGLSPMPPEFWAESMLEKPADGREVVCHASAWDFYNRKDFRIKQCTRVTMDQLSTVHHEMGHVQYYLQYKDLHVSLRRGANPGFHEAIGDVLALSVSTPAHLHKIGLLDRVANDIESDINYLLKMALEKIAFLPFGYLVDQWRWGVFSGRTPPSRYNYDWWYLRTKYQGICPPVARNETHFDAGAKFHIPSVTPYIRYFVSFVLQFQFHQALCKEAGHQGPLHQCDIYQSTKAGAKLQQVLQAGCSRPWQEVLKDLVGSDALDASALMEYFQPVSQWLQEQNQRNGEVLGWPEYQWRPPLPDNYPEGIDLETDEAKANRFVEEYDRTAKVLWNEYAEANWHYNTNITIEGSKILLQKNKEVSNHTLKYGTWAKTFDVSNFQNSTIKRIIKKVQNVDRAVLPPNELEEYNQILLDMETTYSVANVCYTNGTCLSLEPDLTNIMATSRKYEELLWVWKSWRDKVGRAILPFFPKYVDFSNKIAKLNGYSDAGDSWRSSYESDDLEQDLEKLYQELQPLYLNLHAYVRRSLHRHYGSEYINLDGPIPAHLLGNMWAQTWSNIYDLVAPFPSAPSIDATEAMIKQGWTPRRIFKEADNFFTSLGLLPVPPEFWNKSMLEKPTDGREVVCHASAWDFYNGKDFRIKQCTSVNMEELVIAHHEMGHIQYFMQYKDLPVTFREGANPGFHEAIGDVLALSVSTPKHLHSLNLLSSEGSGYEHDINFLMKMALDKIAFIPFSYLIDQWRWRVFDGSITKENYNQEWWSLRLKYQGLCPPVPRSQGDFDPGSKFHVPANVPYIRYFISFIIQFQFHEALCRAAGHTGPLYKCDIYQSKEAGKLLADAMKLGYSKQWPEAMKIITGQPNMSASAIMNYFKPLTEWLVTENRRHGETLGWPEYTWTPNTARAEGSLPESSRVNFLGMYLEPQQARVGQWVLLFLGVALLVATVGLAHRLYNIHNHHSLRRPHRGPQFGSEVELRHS
Put plainly: In vitro inhibition of angiotensin converting enzyme isolated from rat lung. Particulars: read-out: I50.

The target in another assay is T2, Neprilysin (Rattus norvegicus, UniProt P07861).
T2 sequence (P07861 whole entry): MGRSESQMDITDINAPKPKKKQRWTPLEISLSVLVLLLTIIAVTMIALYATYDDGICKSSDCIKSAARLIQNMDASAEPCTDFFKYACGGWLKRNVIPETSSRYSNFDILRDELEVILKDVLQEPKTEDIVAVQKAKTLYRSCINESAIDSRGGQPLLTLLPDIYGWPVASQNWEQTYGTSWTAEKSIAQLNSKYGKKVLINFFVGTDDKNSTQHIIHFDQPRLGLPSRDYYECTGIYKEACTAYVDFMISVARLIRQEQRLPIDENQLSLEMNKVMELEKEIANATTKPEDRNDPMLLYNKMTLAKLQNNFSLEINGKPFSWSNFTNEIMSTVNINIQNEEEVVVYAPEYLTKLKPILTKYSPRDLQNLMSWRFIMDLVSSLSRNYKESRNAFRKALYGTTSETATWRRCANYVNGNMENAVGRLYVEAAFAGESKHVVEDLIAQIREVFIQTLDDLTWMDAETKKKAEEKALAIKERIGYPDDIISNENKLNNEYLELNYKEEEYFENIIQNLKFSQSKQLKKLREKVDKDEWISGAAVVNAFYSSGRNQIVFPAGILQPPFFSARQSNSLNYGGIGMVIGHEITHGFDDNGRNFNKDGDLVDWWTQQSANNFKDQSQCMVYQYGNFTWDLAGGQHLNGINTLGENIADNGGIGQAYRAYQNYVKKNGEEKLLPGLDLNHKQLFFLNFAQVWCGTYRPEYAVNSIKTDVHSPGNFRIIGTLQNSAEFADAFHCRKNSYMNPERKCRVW
The assay can be described thus: In vitro inhibition of Neutral Endopeptidase isolated from rat kidney. The conditions noted are these: read-out: I50.

What is called ED50 is the midpoint of the dose-response relation. A higher ED50 goes with weaker potency. For the compound `O=C(O)CN1C(=O)[C@@H](NC(=O)[C@@H](S)Cc2ccccc2)CSc2ccccc21`, in the assay on Rattus norvegicus, the median effective dose (ED50) is 0.14 µmol/kg. Moreover, the IC50 in assay [1] came out at 13 nM.

With `O=C(O)CN1C(=O)[C@@H](NC(=O)[C@@H](CS)Cc2ccccc2)CSC[C@H]1c1ccccc1`, the IC50 in assay [1] turned out to be 22 nM.

In the case of `O=C(O)CN1CCSC[C@H](NC(=O)[C@@H](CS)Cc2ccccc2)C1=O`, in assay [1], the IC50 was determined as 100 nM.

As for `O=C(O)CN1C(=O)[C@@H](NC(=O)[C@@H](CS)Cc2ccccc2)CS[C@@H]1c1ccccc1`, the IC50 at Neprilysin amounted to 2.5 nM; in assay [1], 167 nM.

For `O=C(O)CN1CCSC[C@H](NC(=O)[C@@H](S)Cc2ccccc2)C1=O`, the IC50 on Neprilysin amounted to 244 nM; in assay [1] it was 67 nM. Further, the ED50 with Rattus norvegicus is 4.4 µmol/kg.

In the case of `O=C(O)CN1C[C@H](c2ccccc2)SC[C@H](NC(=O)[C@@H](S)Cc2ccccc2)C1=O`, the IC50 at Neprilysin stood at 2040 nM; in assay [1], 290 nM.

As for `O=C(O)CN1C(=O)[C@@H](NC(=O)[C@@H](S)Cc2ccccc2)CSC[C@H]1c1ccccc1`, the ED50 in the assay on Rattus norvegicus is 0.49 µmol/kg. In assay [1], the IC50 worked out at 29 nM.

On to `O=C(O)CN1C(=O)[C@@H](NC(=O)[C@@H](CS)Cc2ccccc2)CSc2ccccc21`, for which the values for the IC50 (on Neprilysin; in assay [1]) were 1 nM and 17 nM, respectively. This compound also registered a 50% effective dose (ED50) with Rattus norvegicus of 3.96 µmol/kg.

For `O=C(O)CN1CSCC[C@H](NC(=O)[C@@H](S)Cc2ccccc2)C1=O`, the IC50 at Neprilysin came out at 535 nM; in assay [1] it was 61 nM.

In the assay on Rattus norvegicus, `O=C(O)CN1C(=O)[C@H](NC(=O)[C@@H](S)Cc2ccccc2)CS[C@@H]1c1ccccc1` returned an ED50 of 0.21 µmol/kg. In addition, the IC50 in assay [1] is 20 nM.

As for `O=C(O)CN1C[C@@H](c2ccccc2)SC[C@H](NC(=O)[C@@H](S)Cc2ccccc2)C1=O`, the IC50 at Neprilysin was determined as 99 nM; in assay [1] it was 40 nM. In the assay on Rattus norvegicus, this compound showed an ED50 of less than 0.15 µmol/kg.

In the assay with Rattus norvegicus, `O=C(O)CN1C[C@@H](c2ccccc2)SC[C@H](NC(=O)[C@@H](CS)Cc2ccccc2)C1=O` displayed an ED50 greater than 1.5 µmol/kg. Besides, in assay [1], the IC50 came to 33 nM.

Regarding `CC1(C)CSC[C@H](NC(=O)[C@@H](S)Cc2ccccc2)C(=O)N1CC(=O)O`, in assay [1], the IC50 amounted to 13.8 nM.

Consider `C[C@@H]1SCC[C@H](NC(=O)[C@@H](S)Cc2ccccc2)C(=O)N1CC(=O)O`, for which the IC50 in assay [1] was 11.7 nM.

In the assay on Rattus norvegicus, `O=C(O)CN1C(=O)[C@@H](NC(=O)[C@@H](S)Cc2ccccc2)CS[C@@H]1c1ccccc1` gave an ED50 of 2.75 µmol/kg. For the same compound, the IC50 in assay [1] came to 25 nM.

`O=C(O)CN1C(=O)[C@H](NC(=O)[C@@H](CS)Cc2ccccc2)CS[C@@H]1c1ccccc1`: the IC50 at Neprilysin was determined as 126 nM; in assay [1], 123 nM.

On to `O=C(O)CN1C(=O)[C@@H](NC(=O)[C@@H](S)Cc2ccccc2)CS[C@H]1c1ccccc1`, for which the IC50 in assay [1] was determined as 73 nM.

On to `O=C(O)CN1C(=O)[C@@H](NC(=O)[C@@H](CS)Cc2ccccc2)CS[C@H]1c1ccccc1`, for which the IC50 at Neprilysin was 2.7 nM; in assay [1] it was 115 nM.
